{
  "source": "patent US20220323626A1",
  "about": "“Compositions, Kits, Methods and Uses for Preventing Microbial Growth” (Collidion, Inc., priority 2019, published 2022)",
  "test_system": "Staphylococcus aureus (ATCC 29213)",
  "test": "Microbiostatic assay: antimicrobial effectiveness test according to USP-51, viable colony counts over 28 days",
  "format": "cell-based",
  "conditions": "inferred from the initial assays (7-log reduction at 0.5 ppm and above)",
  "protocol": "To prepare stock cultures of pathogenic bacteria, 10 mL nutrient broth was inoculated using a stock culture of Staphylococcus aureus (ATCC 29213) and incubated on an orbital shaker for 24±2 hours at approximately 150 rpm at 36±1° C. This culture was used to inoculate Tryptic Soy Agar (TSA) plates. Each plate was inoculated with the culture. Each plate was incubated for up to 48 hours at 30° C. to 35° C. Following incubation, suspensions were prepared by adding growth from TSA plates into a tube containing sterile water. Each tube was then vortexed and an aliquot was serially diluted and plated onto TSA plate for further numeration. The final numeration count uses aliquot volume, count obtained on TSA plate and the total original volume of culture. […]\nEach composition was tested over a seven log dilution series of pathogen bacteria assays by preparing samples containing 200 μL of a pathogenic bacteria suspension, 20 μL of an organic load, and 20,000 μL of a composition disclosed herein. […] The presence of viable bacteria was then measured by counting the number of colonies observed on the agar medium for each assay sample. Log reduction is determined by taking the log10 of the number calculated by taking the number of viable pathogenic bacteria colonies present in the assay sample without serum divided by the number of viable pathogenic bacteria colonies present in the assay sample with serum. […]",
  "data": [
    {"substance": "hypochlorous acid", "values": [
      {"measurement": "minimum microbiocidal concentration of hypochlorous acid or free available chlorine in the disclosed compositions", "value": "approximately 0.5 ppm"}
    ]}
  ]
}
